Reference: the OPERA property sets (Mansouri et al. 2018)

Row | SMILES | logP
1 | COC(=O)C(=Cc1ccc(Br)o1)[N+](=O)[O-] | 2.74
2 | N#CC=Cc1ccc([N+](=O)[O-])o1 | 1.05
3 | C=Cc1ccc([N+](=O)[O-])o1 | 1.61
4 | O=[N+]([O-])C=Cc1ccc([N+](=O)[O-])o1 | 1.3
5 | CCCCNC(=O)C=Cc1ccc([N+](=O)[O-])o1 | 2.36
6 | CCCCCOC(=O)C=Cc1ccc([N+](=O)[O-])o1 | 3.4
7 | COC(=O)C(=Cc1ccc(I)o1)[N+](=O)[O-] | 3
8 | CCOC(=O)C(=Cc1ccc([N+](=O)[O-])o1)C(=O)OCC | 2.5
9 | COC(=O)C(=Cc1ccc(C(=O)OC)o1)[N+](=O)[O-] | 1.87
10 | COC(=O)C(=Cc1ccc([N+](=O)[O-])o1)[N+](=O)[O-] | 1.6
11 | CC(C)(C)CNC(=O)C=Cc1ccc([N+](=O)[O-])o1 | 2.61
12 | COC(=O)C(=Cc1ccco1)[N+](=O)[O-] | 1.88
13 | CCC(C)OC(=O)C=Cc1ccc([N+](=O)[O-])o1 (stereo unspecified) | 3.09
14 | O=[N+]([O-])c1ccc(C=CS(=O)(=O)c2ccccc2)o1 | 1.88
15 | COC(=O)C(=Cc1ccc(C)o1)[N+](=O)[O-] | 2.44

Second part, the compound after the results:

Row | logP | SMILES
16 | 2.33 | CC(C)(C)NC(=O)C=Cc1ccc([N+](=O)[O-])o1
17 | 2.83 | CCCCOC(=O)C=Cc1ccc([N+](=O)[O-])o1
18 | 2.1 | CCOC(=O)C=Cc1ccc([N+](=O)[O-])o1
19 | 1.86 | CCCNC(=O)C=Cc1ccc([N+](=O)[O-])o1
20 | 0.68 | O=C(O)C=Cc1ccc([N+](=O)[O-])o1
21 | 1.39 | CCNC(=O)C=Cc1ccc([N+](=O)[O-])o1
22 | 3.14 | CC(C)COC(=O)C=Cc1ccc([N+](=O)[O-])o1
23 | 0.82 | CN(C)C(=O)C=Cc1ccc([N+](=O)[O-])o1
24 | 3.06 | CC(C)(C)OC(=O)C=Cc1ccc([N+](=O)[O-])o1
25 | 2.28 | CCC(C)NC(=O)C=Cc1ccc([N+](=O)[O-])o1 (stereo unspecified)
26 | 0.98 | CNC(=O)C=Cc1ccc([N+](=O)[O-])o1
27 | 1.65 | COC(=O)C=Cc1ccc([N+](=O)[O-])o1
28 | 2.64 | CC(C)OC(=O)C=Cc1ccc([N+](=O)[O-])o1
29 | 2.45 | O=[N+]([O-])c1ccc(C=CBr)o1
30 | 2.23 | CC(C)CNC(=O)C=Cc1ccc([N+](=O)[O-])o1
31 | 2.67 | CCCOC(=O)C=Cc1ccc([N+](=O)[O-])o1
